Laboratory results reported in PubChem BioAssay AID1963866 (Molecular Pharmacology Branch, DTP, NCI, 2024).
pIC50: −log10 of the molar value.

Tested on: PDC KRAS tumor spheroids with HUVEC/MSC, viability
Test: Anticancer human tumor 349418-098-R-PDC patient-derived lung adenocarcinoma cell line growth inhibition [KRAS2]
Conditions: for pIC50: curve of first compound; for viability, T/C: stronger effect = lower value
Procedure, shortened: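 KRAS-mutant tumor cells were grown as spheroids with HUVEC endothelial cells and human MSCs as stroma. Targeted agents were tested alone and with KRAS pathway inhibitors. Doses started at or near clinical Cmax, or 10 microM, descending half-log.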

[1] = second compound 0.1 µM, first compound 0.0316 µM
[2] = second compound 0.1 µM, first compound 0.1 µM
[3] = second compound 0.1 µM, first compound 0.316 µM
[4] = second compound 0.1 µM, first compound 1 µM
[5] = second compound 0.1 µM, first compound 3.16 µM
[6] = second compound 0.1 µM, first compound 10 µM
[7] = second compound 0.316 µM, first compound 0.0316 µM
[8] = second compound 0.316 µM, first compound 0.1 µM
[9] = second compound 0.316 µM, first compound 0.316 µM
[10] = second compound 0.316 µM, first compound 1 µM
[11] = second compound 0.316 µM, first compound 3.16 µM
[12] = second compound 0.316 µM, first compound 10 µM
[13] = second compound 1 µM, first compound 0.0316 µM
[14] = second compound 1 µM, first compound 0.1 µM
[15] = second compound 1 µM, first compound 0.316 µM
[16] = second compound 1 µM, first compound 1 µM
[17] = second compound 1 µM, first compound 3.16 µM
[18] = second compound 1 µM, first compound 10 µM
[19] = second compound 3.16 µM, first compound 0.0316 µM
[20] = second compound 3.16 µM, first compound 0.1 µM
[21] = second compound 3.16 µM, first compound 0.316 µM
[22] = second compound 3.16 µM, first compound 1 µM
[23] = second compound 3.16 µM, first compound 3.16 µM
[24] = second compound 3.16 µM, first compound 10 µM
[25] = second compound 10 µM, first compound 0.0316 µM
[26] = second compound 10 µM, first compound 0.1 µM
[27] = second compound 10 µM, first compound 0.316 µM
[28] = second compound 10 µM, first compound 1 µM
[29] = second compound 10 µM, first compound 3.16 µM
[30] = second compound 10 µM, first compound 10 µM
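Also: spheroids exposed to compounds for seven days before readout.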

COC(=O)c1ccc2c(C(=Nc3ccc(N(C)C(=O)CN4CCN(C)CC4)cc3)c3ccccc3)c(O)[nH]c2c1 + CC1OCC2(CCN(c3cnc(Sc4ccnc(N)c4Cl)c(N)n3)CC2)C1N
pIC50 (second compound 0.1 µM): 5.84
pIC50 (second compound 0.316 µM): 5.84
pIC50 (second compound 1 µM): 5.91
pIC50 (second compound 3.16 µM): 5.97
pIC50 (second compound 10 µM): 6.22
viability, T/C [1]: 100%
viability, T/C [2]: 104%
viability, T/C [3]: 82.3%
viability, T/C [4]: 68.1%
viability, T/C [5]: 12.1%
viability, T/C [6]: 15.3%
viability, T/C [7]: 102%
viability, T/C [8]: 93.3%
viability, T/C [9]: 92.5%
viability, T/C [10]: 68.7%
viability, T/C [11]: 7.79%
viability, T/C [12]: 14.9%
viability, T/C [13]: 82.6%
viability, T/C [14]: 114%
viability, T/C [15]: 71.5%
viability, T/C [16]: 63.6%
viability, T/C [17]: 12.2%
viability, T/C [18]: 12.3%
viability, T/C [19]: 79.2%
viability, T/C [20]: 101%
viability, T/C [21]: 75.3%
viability, T/C [22]: 54.3%
viability, T/C [23]: 14%
viability, T/C [24]: 11.5%
viability, T/C [25]: 81.2%
viability, T/C [26]: 75.4%
viability, T/C [27]: 61.5%
viability, T/C [28]: 42.2%
viability, T/C [29]: 14.8%
viability, T/C [30]: 7.52%

COc1cc(Nc2ncc3c(n2)-c2ccc(Cl)cc2C(c2c(F)cccc2OC)=NC3)ccc1C(=O)O + CC1OCC2(CCN(c3cnc(Sc4ccnc(N)c4Cl)c(N)n3)CC2)C1N
pIC50 (second compound 0.1 µM): 7.37
pIC50 (second compound 0.316 µM): 7.36
pIC50 (second compound 1 µM): 7.30
pIC50 (second compound 3.16 µM): > 7.50
pIC50 (second compound 10 µM): 7.47
viability, T/C [1]: 56.5%
viability, T/C [2]: 32.4%
viability, T/C [3]: 32.4%
viability, T/C [4]: 40.1%
viability, T/C [5]: 30.8%
viability, T/C [6]: 24%
viability, T/C [7]: 57.4%
viability, T/C [8]: 27.8%
viability, T/C [9]: 38.8%
viability, T/C [10]: 26.4%
viability, T/C [11]: 40.2%
viability, T/C [12]: 20.4%
viability, T/C [13]: 57.4%
viability, T/C [14]: 35.4%
viability, T/C [15]: 39%
viability, T/C [16]: 38.1%
viability, T/C [17]: 27.3%
viability, T/C [18]: 25%
viability, T/C [19]: 39.4%
viability, T/C [20]: 36.3%
viability, T/C [21]: 28%
viability, T/C [22]: 28.7%
viability, T/C [23]: 32.9%
viability, T/C [24]: 28.4%
viability, T/C [25]: 51%
viability, T/C [26]: 33.5%
viability, T/C [27]: 32.8%
viability, T/C [28]: 31.1%
viability, T/C [29]: 31.4%
viability, T/C [30]: 27%

O=C(c1cc(Cc2n[nH]c(=O)c3ccccc23)ccc1F)N1CCN(C(=O)C2CC2)CC1 + CC1OCC2(CCN(c3cnc(Sc4ccnc(N)c4Cl)c(N)n3)CC2)C1N
pIC50 (second compound 0.1 µM): 5.33
pIC50 (second compound 0.316 µM): 5.49
pIC50 (second compound 1 µM): 5.37
pIC50 (second compound 3.16 µM): 5.55
pIC50 (second compound 10 µM): 5.84
viability, T/C [1]: 95.9%
viability, T/C [2]: 89.7%
viability, T/C [3]: 89%
viability, T/C [4]: 81.3%
viability, T/C [5]: 63.5%
viability, T/C [6]: 25.3%
viability, T/C [7]: 78.8%
viability, T/C [8]: 82.6%
viability, T/C [9]: 77.3%
viability, T/C [10]: 78.5%
viability, T/C [11]: 50.6%
viability, T/C [12]: 29.2%
viability, T/C [13]: 107%
viability, T/C [14]: 97.3%
viability, T/C [15]: 81.8%
viability, T/C [16]: 59.9%
viability, T/C [17]: 66.7%
viability, T/C [18]: 33%
viability, T/C [19]: 90.8%
viability, T/C [20]: 84%
viability, T/C [21]: 68.6%
viability, T/C [22]: 70.6%
viability, T/C [23]: 48.3%
viability, T/C [24]: 23.9%
viability, T/C [25]: 80.9%
viability, T/C [26]: 72.8%
viability, T/C [27]: 59.2%
viability, T/C [28]: 56.6%
viability, T/C [29]: 44.1%
viability, T/C [30]: 29.7%
